Laboratory results taken from patent US20080033057A1, “Hexahydro-isoalpha acid based protein kinase modulation cancer treatment” (Metaproteomics, LLC, priority 2006, published 2008).
Marks after values point to notes of the source that are not given here.

How the values were obtained:
3T3-L1 adipocytes [1] = assay: Adiponectin secretion from TNFα-treated 3T3-L1 adipocytes; assay type: cell-based, murine
Description: For two days, the cells were allowed grow to reach confluence. […] (3) 0.5 μM dexamethasone and (4) 10 μg/ml insulin (MDI medium). […] Adiponectin Assay—The adiponectin secreted into the medium was quantified using the Mouse Adiponectin Quantikine® Immunoassay kit with no modifications (R&D Systems, Minneapolis, Minn.). […] Statistical Calculations and Interpretation—All assays were preformed in duplicate. […] Differences among the doses and test agents were determined using the Student's t-test without correction for multiple comparisons; the nominal five percent probability of a type I error was selected.

3T3-L1 adipocytes [2] = assay: IL-6 secretion from LPS-treated 3T3-L1 adipocytes; assay type: cell-based, murine; conditions: with 100 ng LPS/ml, D5 3T3-L1 adipocytes
3T3-L1 adipocytes [3] = assay: Adiponectin secretion from LPS-treated 3T3-L1 adipocytes; assay type: cell-based, murine; conditions: for induction of adiponectin secretion: any of the doses tested
[4] = Non-fasting serum glucose and insulin in db/db diabetic mice; assay type: in vivo, mouse
Description: The Model—Male, C57BLKS/J m^+/m^+ Lepr^db (db/db) mice were used to assess the potential of the test materials to reduce fasting serum glucose or insulin concentrations.
Testing Procedure—Test substances were administered daily by gavage in 0.2% Tween-80. Serum was collected from the retroorbital sinus before the initial dose and ninety minutes after the third and final dose. Non-fasting serum glucose was determined enzymatically by the mutarotase/glucose oxidase method and serum insulin was determined by a mouse specific ELISA.
The Model—Male, C57BLKS/J m+/m+Leprdb (db/db) mice were used to assess the potential of the test materials to reduce fasting serum glucose or insulin concentrations.
Testing Procedure—Test substances were administered daily by gavage in 0.2% Tween-80. […] Non-fasting serum glucose was determined enzymatically by the mutarotase/glucose oxidase method and serum insulin was determined by a mouse specific ELISA.

3T3-L1 adipocytes [5] = assay: Adiponectin secretion from insulin-resistant 3T3-L1 adipocytes; assay type: cell-based, murine
Description: 3T3-L1 cells were seeded at an initial density of 1×10^4 cells/cm^2 in 96-well plates. For two days, the cells were allowed grow to reach confluence. Following confluence, the cells were forced to differentiate into adipocytes by the addition of differentiation medium; this medium consisted of (1) 10% FBS/DMEM (high glucose); (2) 0.5 mM methylisobutylxanthine; (3) 0.5 μM dexamethasone and (4) 10 μg/ml insulin (MDI medium). From Day 3 through Day 5, the medium was changed to post-differentiation medium consisting of 10 μg/ml insulin in 10% FBS/DMEM.
Briefly, on Day 6, cells were maintained in serum-free media containing 0.5% bovine serum albumin (BSA) for three hours and then treated with 1 μg insulin/ml plus solvent or insulin plus test material. […] Twenty-four hours later, the supernatant medium was sampled for adiponectin determination.
Adiponectin Assay—The adiponectin secreted into the medium was quantified using the Mouse Adiponectin Quantikine® Immunoassay kit with no modifications (R&D Systems, Minneapolis, Minn.).
Statistical Calculations and Interpretation—All assays were preformed in duplicate. […] Differences between the doses were determined using the student's t-test without correction for multiple comparisons; the nominal five percent probability of a type I error was selected. […]

[6] = tested on: A549 pulmonary epithelial cells; assay: PGE2 biosynthesis in A549 cells stimulated by mite dust allergen; assay type: cell-based, human; conditions: 10 μg/ml, mite allergen 1000 ng/ml
Description: The filtrate was termed mite dust allergen and used to test for induction of PGE2 biosynthesis in A549 pulmonary epithelial cells.
Mite allergen was added to the culture medium to achieve a final concentration of 1000 ng/ml. Eighteen hours later, the media were sampled for PGE2 determination.

3T3-L1 adipocytes [7] = assay: Lipogenesis (Oil Red O / BODIPY) in 3T3-L1 adipocytes; assay type: cell-based, murine; conditions: hops compounds 10, 5, 4 or 2 μg/ml; spent hops 50 μg/ml
Description: Prior to experiments, cells were cultured in DMEM containing 10% FBS-HI added 50 units penicillin/ml and 50 μg streptomycin/ml, and maintained in log phase prior to experimental setup. Cells were grown in a 5% CO2 humidified incubator at 37° C. Components of the pre-confluent medium included (1) 10% FBS/DMEM containing 4.5 g glucose/L; (2) 50 U/ml penicillin; and (3) 50 μg/ml streptomycin. Growth medium was made by adding 50 ml of heat inactivated FBS and 5 ml of penicillin/streptomycin to 500 ml DMEM. This medium was stored at 4° C. Before use, the medium was warmed to 37° C. in a water bath.
T3-T1 cells were seeded at an initial density of 6×10^4 cells/cm^2 in 24-well plates. For two days, the cells were allowed grow to reach confluence. Following confluence, the cells were forced to differentiate into adipocytes by the addition of differentiation medium; this medium consisted of (1) 10% FBS/DMEM (high glucose); (2) 0.5 mM methylisobutylxanthine; (3) 0.5 μM dexamethasone and (4) 10 μg/ml insulin (MDI medium). After three days, the medium was changed to post-differentiation medium consisting of 10 μg/ml insulin in 10% FBS/DMEM.
AcE was partially dissolved in dimethyl sulfoxide (DMSO) and added to the culture medium to achieve a concentration of 50 μg/ml at Day 0 of differentiation and throughout the maturation phase (Days 6 or 7 (D6/7)). […]
Oil Red O Staining—Triglyceride content of D6/D7-differentiated 3T3-L1 cells was estimated with Oil Red O according to the method of Kasturi and Joshi [Kasturi, R. and Joshi, V. C. […] The resulting stained oil droplets were extracted from the cells with isopropanol and quantified by spectrophotometric analysis at 540 nm (MEL312e BIO-KINETICS READER, Bio-Tek Instruments, Winooski, Vt.).
Briefly, media were removed and cells were washed once with non-sterile PBS. […] After 15 min on an orbital shaker (DS-500, VWR Scientific Products, South Plainfield, N.J.) at ambient temperature, the cells were washed with 100 μL PBS followed by the addition of 100 μl PBS for reading for spectrofluorometric determination of BODIPY incorporation into the cells. […]

With `COc1ccc2c(c1)c(CC(=O)O)c(C)n2C(=O)c1ccc(Cl)cc1` [Indomethacin, indomethacin] the adiponectin secretion (3T3-L1 adipocytes [1]; 0.5 ng TNFα/ml) was “dose-dependant decrease in adiponectin secretion”, the “increase of adiponectin secretion in the presence of TNFα” value (3T3-L1 adipocytes [1]; 10 ng TNFα/ml, Example 16) was 94% and the “optimal concentration for adiponectin secretion” value (3T3-L1 adipocytes [1]; 10 ng TNFα/ml, Example 16) was 2.5 µg/mL. For the same compound, the Adiponectin/IL-6 (3T3-L1 adipocytes [1]; 10 ng TNFα/ml, […]) was 2.00*, the “Concentration providing the maximum inhibition of IL-6 secretion” value (3T3-L1 adipocytes [2]) was 5.00 µg/mL and the maximum adiponectin stimulation (3T3-L1 adipocytes [3]; LPS 100 ng/ml, […]) was 9%. The “Concentration of maximum stimulation of adiponectin secretion” value (3T3-L1 adipocytes [3]; LPS-treated D5 3T3-L1 adipocytes) was 2.50 µg/mL.

In the case of `CN(CCOc1ccc(CC2SC(=O)NC2=O)cc1)c1ccccn1` (stereo not shown) [rosiglitazone], the “Glucose [% Pretreatment]” value ([4]; db/db mice, non-fasting serum, 1.0 mg/kg-day by gavage, three days) is reported as 83.0# % Pretreatment.

In the case of `O=C(O)c1ccccc1O` [salicylic acid], the “induction of adiponectin secretion” value (3T3-L1 adipocytes [3]; LPS 100 ng/ml) is reported as “failed to induce adiponectin secretion”.

With `CN(C)C(=N)N=C(N)N` [metformin] the “serum glucose relative to the controls” value ([4]; three consecutive days) was “decreased both serum glucose and insulin concentrations”.

For `CC(C)CCC1=C(O)C(C(=O)C(C)C)=C(O)C(CCC(C)C)(CCC(C)C)C1=O` [Hexahydrocolupulone (HHCL)], the Adiponectin/IL-6 (3T3-L1 adipocytes [5]; 50.0 μg/ml, ratio of adiponectin index to IL-6 index, insulin-resistant 3T3-L1) was 0.60#.

For `CCc1ccc(CCOc2ccc(CC3SC(=O)NC3=O)cc2)nc1` (stereo not shown) [Pioglitazone, pioglitazone], the “optimal concentration for adiponectin secretion” value (3T3-L1 adipocytes [1]; 10 ng TNFα/ml, Example 16) was 1.25 µg/mL, the “Concentration of maximum adiponectin secretion over four doses” value (3T3-L1 adipocytes [1]; 10 ng TNFα/ml, Example 17) was 1.25 µg/mL and the “Concentration providing the maximum inhibition of IL-6 secretion” value (3T3-L1 adipocytes [2]) was 5.00 µg/mL.

With Beta acids the “Percent PGE2 Inhibition” value [6] was 83% and the “adipogenic (lipogenic) response compared with controls” value (“adipogenic … compared with controls” below) (3T3-L1 adipocytes [7]) was “comparable to indomethacin and troglitazone”.

In the case of `Cc1c(C)c2c(c(C)c1O)CCC(C)(COc1ccc(CC3SC(=O)NC3=O)cc1)O2` (stereo not shown) [Troglitazone, troglitazone], the “maximum increase of adiponectin secretion from the TNFα solvent control” value (3T3-L1 adipocytes [1]; 10 ng/ml TNFα) is reported as 51% and the “Concentration providing the maximum inhibition of IL-6 secretion” value (3T3-L1 adipocytes [2]) is reported as 10.0 µg/mL.

For `CC(=O)Oc1ccccc1C(=O)O` [Aspirin, aspirin], the “induction of adiponectin secretion” value (3T3-L1 adipocytes [3]; LPS 100 ng/ml) was “failed to induce adiponectin secretion”.

With `COc1cc(O)c(CC=C(C)C)c(O)c1C(=O)/C=C/c1ccc(O)cc1` [Xanthohumol, xanthohumol] the “adipogenic … compared with controls” value (3T3-L1 adipocytes [7]) was “comparable to indomethacin and troglitazone”.

In the case of `CC(C)CCC1=C(O)C(C(=O)C(C)C)=C(O)C(CCC(C)C)(CCC(C)C)C1=O` [Hexahydro colupulone, hexahydrocolupulone], the “adipogenic … compared with controls” value (3T3-L1 adipocytes [7]) is reported as “failed to elicit a lipogenic response greater than the solvent controls” and the “dose of maximal observed adiponectin secretion” value (3T3-L1 adipocytes [5]; four doses tested) is reported as 12.5 µg/mL.
